This is an account of results in PMC11860020, “Rational Design and Synthesis of a Novel Series of Thiosemicarbazone-Containing Quinazoline Derivatives as Potential VEGFR2 Inhibitors” (Pharmaceutics, 2025).

Where two headings read alike, the source gives them in different places.

Data set [1] deals with chick chorioallantoic egg membrane (CAM). Kind of data set: Chorioallantoic egg membrane (CAM) assay. The class given is in vivo. To be noted: 1 µM, 5 µM and 10 µM, 5-day protocol. The method, then:
Eggs without deformities and weighing between 50 and 60 g were selected. The eggs were cleaned with 70% alcohol and incubated for 14 days in standard conditions (37.5 °C, humidity 65%). On the 4th day of incubation, approximately 10–12 mL of egg white (albumen) was extracted from the top of each egg using a medical syringe with a needle for the detachment of the egg membrane. On the 5th day, the eggs were checked for fertility using a light source, and a window large enough to reveal the vascular plexus was cut out with forceps. The window was then sealed with medical tape to maintain favorable conditions for embryonic development. Optimal ventilation conditions, temperature, and humidity were ensured throughout incubation to facilitate proper embryo growth. […] For this purpose, a transparent silicone ring was applied to the vascular plexus of the CAM using a tweezer. In this ring, 10 μL of each test sample was applied for 4 days. […] Pictures were taken daily (days 1–5 of exposure) to observe the effects of the samples on the angiogenic process, and the changes observed were noted. For microscopic analysis, a Zeiss SteREO Discovery.V8 stereomicroscope was used, coupled with a Zeiss Axiocam 105 digital camera, both connected to a computer. The images presented in this study were captured using the ZEN core 3.8 software. The scale bar from the images represents a measurement of 500 μm.

Data set [2] relates to A375 cells. Kind of data set: Alamar Blue cytotoxicity on A375 cells. The class given is cell-based, human. To be noted: for IC50: Homo sapiens, read-out: IC50 A375; for Selectivity Index SIb: SIb = IC50 HaCaT/IC50 A375. Background: Resazurin is reduced to fluorescent resorufin, in cell work by metabolically active cells.
Experimental: (§1) To the growth media of all the cell lines, 1% penicillin/streptomycin and 10% FBS were added. The cell lines were cultured in standardized conditions (37 °C and 5% CO2) with the initiation of the experimental protocol once an 80–90% confluency was reached.
(§2) The spectrophotometric quantification (λemission = 590/35, λexcitation = 530/25) of resorufin by the metabolic-dependent conversion of the resazurin by the viable cells was achieved using the microplate reader Synergy 2 Multi-Mode. The cells were seeded in 100 µL of growth media in 96-well plates at the specified density (Ea.Hy296—5 × 10^3 cells/well, HaCaT—8 × 10^3 cells /well, and A375—7 × 10^3 cells /well) and were left overnight to attach. […] After 48 h of cultivation, the growth media was removed, and the AB assay was performed for the quantification of the viable cells post-exposure to the selected compounds. Three biological replicates were performed for each biological experiment with six technical replicates, using 0.2% DMSO as the negative control (NC) for data normalization (100% viability). The IC50 values were calculated based on the dose–cellular viability curve ratio obtained by fitting the experimental data with a 4-parameter logistic curve (SigmaPlot 11).
The test system of data set [3] is HaCaT cells. Kind of data set: Alamar Blue cytotoxicity on HaCaT cells. It counts as cell-based. To be noted: Homo sapiens, read-out: IC50 HaCaT.
Experimental: as §1, §2
Data set [4] has as its system Ea.Hy926 cells. Kind of data set: Alamar Blue cytotoxicity on Ea.Hy926 cells. To be noted: for Selectivity Index SIa: SIa = IC50 HaCaT/IC50 EA.hy296; for IC50: read-out: IC50 EA.hy926, 48 h exposure, Alamar Blue.
Experimental: as §1, §2
Data set [5] concerns Ea.Hy926 cells. Kind of data set: Wound healing (scratch) assay. The class given is cell-based, human. Conditions: 12 h. The method, then: Confluent Ea.Hy926 monolayers were formed by seeding the cells for 24 h in a 12-well plate incubated in a starvation medium. After the confluency was reached, the medium was removed and a scratch was performed using the sterile tip of a 100 µL pipette. Detached cells were removed by washing the cellular monolayers twice with DPBS, and then the cells were photographed individually (phase-contrast microscopy, 10x objective) to assess the wound area at the moment of exposure (T0). […] For each experiment, an image was captured 12 h post-exposure (T12), and the rate of Ea.Hy926 cell migration was quantitatively evaluated by the wound healing percentage (%) calculated by the formula (AT0 − AT12)/ AT0 × 100 [35]. The scratch areas at T0 (AT0) and T12 (AT12), respectively, were determined with the IKOSA Prisma Application Wound Healing (Scratch) assay (v2.2.0) and are expressed as square pixels (Px^2).

The target in data set [6] is T1, Human VEGFR-2 (KDR) (Homo sapiens, UniProt P35968).
T1 construct: purchased BPS Bioscience 40325
The data set can be described thus: In vitro VEGFR2 kinase inhibition assay. Conditions: for IC50: isolated kinase domain, 45 min at 30 °C; for inhibition at 0.5 µM: read-out: VEGFR2 Kinase Inhibitory Activity % of Inhibition (500 nM). The class given is biochemical. The method, then: The experimental assay was conducted according to the manufacturer’s instructions. […] The incubation time was set for 45 min at 30 °C. Inhibitory potential towards the kinase domain was quantified by luminescence detection, after the addition of the Kinase-Glo™ MAX reagent (Promega, Madison, WI, USA, catalog #v6071). After further incubation for an additional 15 min, the luminescence was recorded using a microplate reader Synergy 2 Multi-Mode.

[7] abbreviates: A-375, 48 h exposure, Alamar Blue.

T1 sequence (P35968 805-1356): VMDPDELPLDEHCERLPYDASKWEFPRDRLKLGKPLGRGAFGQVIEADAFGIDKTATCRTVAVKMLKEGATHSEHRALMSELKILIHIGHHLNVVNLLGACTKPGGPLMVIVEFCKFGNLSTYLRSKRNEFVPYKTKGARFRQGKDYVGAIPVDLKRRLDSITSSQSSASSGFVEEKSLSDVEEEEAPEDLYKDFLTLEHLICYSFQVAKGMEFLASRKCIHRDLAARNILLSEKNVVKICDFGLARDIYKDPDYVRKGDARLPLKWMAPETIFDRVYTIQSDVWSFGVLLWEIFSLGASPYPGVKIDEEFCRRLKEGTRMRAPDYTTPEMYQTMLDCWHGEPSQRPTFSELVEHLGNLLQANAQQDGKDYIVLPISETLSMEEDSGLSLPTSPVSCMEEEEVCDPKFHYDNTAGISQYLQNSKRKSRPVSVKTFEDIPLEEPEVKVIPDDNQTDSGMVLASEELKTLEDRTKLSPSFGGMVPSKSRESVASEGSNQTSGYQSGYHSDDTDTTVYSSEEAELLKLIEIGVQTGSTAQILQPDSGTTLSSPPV

In general, IC50 refers to the concentration that gives 50% inhibition. In general, inhibition refers to the percentage by which the read-out fell short of the control. As to `COc1cc2ncnc(Oc3ccc(C=NNC(=S)NC(C)C)cc3)c2cc1OC` [TSC9, N-isopropyl-2-(4-((6,7-dimethoxyquinazolin-4-yl)oxy)benzylidene)hydrazine-1-carbothioamide], in data set [1], the “anti-angiogenic effect in CAM” value is recorded as “anti-angiogenic properties were also demonstrated across all three tested concentrations”. The IC50 in data set [2] (setting [7]) is over 100 µM; in data set [3] (48 h exposure, Alamar Blue), 86.8 µM; in data set [4], 12.6 µM; in data set [6], 0.379 µM. Also, in data set [4], the “Selectivity Index SIa” value came to 6.90. In addition, the “reduction in the wound closure area” value in data set [5] (highest evaluated concentration (TSC9 12.5 µM, TSC10 7.5 µM)) came out at 25.63%. Besides, in data set [6], the inhibition at 0.5 µM came out at 70.5%.

For `COc1cc2ncnc(Oc3ccc(/C=N/NC(=S)Nc4cccc(Cl)c4Cl)cc3)c2cc1OC` [TSC10, (E)-N-(2,3-dichlorophenyl)-2-(4-((6,7-dimethoxyquinazolin-4-yl)oxy)benzylidene)hydrazine-1-carbothioamide], the “anti-angiogenic effect in CAM” value in data set [1] was “potent anti-angiogenic properties were observed”. In addition, the IC50 amounted to 28.6 µM in data set [2] (setting [7]); 52.4 µM in data set [3] (48 h exposure, Alamar Blue); 12.8 µM in data set [4]; 0.119 µM in data set [6]. For the same compound, the “Selectivity Index SIb” value in data set [2] is listed as 1.83. The “Selectivity Index SIa” value in data set [4] is on record as 4.09. Moreover, in data set [6], the inhibition at 0.5 µM worked out at 89.1%.

As for `COc1cccc(NC(=S)NN=Cc2ccc(Oc3ncnc4cc(OC)c(OC)cc34)cc2)c1` [TSC8, N-(3-methoxyphenyl)-2-(4-((6,7-dimethoxyquinazolin-4-yl)oxy)benzylidene)hydrazine-1-carbothioamide], the IC50 is over 100 µM in data set [2] (setting [7]); over 100 µM in data set [3] (48 h exposure, Alamar Blue); over 100 µM in data set [4]. The inhibition at 0.5 µM in data set [6] worked out at 0%.

As for `C=CCNC(=S)NN=Cc1ccc(Oc2ncnc3cc(OC)c(OC)cc23)cc1` [TSC1, N-allyl-2-(4-((6,7-dimethoxyquinazolin-4-yl)oxy)benzylidene)hydrazine-1-carbothioamide], the IC50 is over 100 µM in data set [2] (setting [7]); about 100 µM in data set [3] (48 h exposure, Alamar Blue); 0.389 µM in data set [6]. For the same compound, in data set [4], the “Selectivity Index SIa” value is listed as 2.00. Moreover, the inhibition at 0.5 µM in data set [6] is 52.7%.

On to `COc1cc2ncnc(Oc3ccc(C=NNC(=S)Nc4ccc(F)cc4)cc3)c2cc1OC` [TSC3, N-(4-fluorophenyl)-2-(4-((6,7-dimethoxyquinazolin-4-yl)oxy)benzylidene)hydrazine-1-carbothioamide], for which the 50% inhibitory concentration (IC50) in data set [2] (setting [7]) is over 100 µM; in data set [3] (48 h exposure, Alamar Blue), 28.6 µM; in data set [4], 26.5 µM; in data set [6], 0.239 µM. For the same compound, the “Selectivity Index SIa” value in data set [4] was found to be 1.08. The inhibition at 0.5 µM in data set [6] was 62.1%.

As to `COc1cc2ncnc(Oc3ccc(/C=N/NC(=S)Nc4cccc(C(F)(F)F)c4)cc3)c2cc1OC` [TSC2, N-(3-(trifluoromethyl)-phenyl)-2-(4-((6,7-dimethoxyquinazolin-4-yl)oxy)benzylidene)-hyrazine-1-carbothioamide], the half-maximal inhibitory concentration (IC50) was over 100 µM in data set [2] (setting [7]); over 100 µM in data set [3] (48 h exposure, Alamar Blue); over 100 µM in data set [4]; 0.341 µM in data set [6]. In addition, the inhibition at 0.5 µM in data set [6] was found to be 59.5%.

On to `COc1cc2ncnc(Oc3ccc(C=NNC(=S)Nc4ccc(Cl)c(C(F)(F)F)c4)cc3)c2cc1OC` [TSC6, N-(4-chloro-3-(trifluoromethyl)phenyl)-2-(4-((6,7-dimethoxyquinazolin-4-yl)oxy)benzylidene)hydrazine-1-carbothioamide], for which the IC50 in data set [2] (setting [7]) is 61 µM; in data set [3] (48 h exposure, Alamar Blue), 23 µM; in data set [4] it was 16.5 µM. In addition, the “Selectivity Index SIb” value in data set [2] is reported as 0.38. The “Selectivity Index SIa” value in data set [4] is listed as 1.40. The inhibition at 0.5 µM in data set [6] was 0%.

Take `COc1cc2ncnc(Oc3ccc(C=NNC(=S)Nc4ccc(Cl)cc4)cc3)c2cc1OC` [TSC4, N-(4-chlorophenyl)-2-(4-((6,7-dimethoxyquinazolin-4-yl)oxy)benzylidene)hydrazine-1-carbothioamide]: the concentration for half-maximal inhibition (IC50) stood at 14.8 µM in data set [2] (setting [7]); 15.9 µM in data set [3] (48 h exposure, Alamar Blue); 14.5 µM in data set [4]. Also, in data set [2], the “Selectivity Index SIb” value is 1.08. Further, the “Selectivity Index SIa” value in data set [4] is given as 1.10. Also, in data set [6], the inhibition at 0.5 µM stood at 40.5%.

As to `CNC(=O)c1cc(Oc2ccc(NC(=O)Nc3ccc(Cl)c(C(F)(F)F)c3)cc2)ccn1` [Sorafenib, sorafenib, reference compound], the “anti-angiogenic effect in CAM” value in data set [1] is reported as “potent anti-angiogenic effect was observed across all three tested concentrations”. In addition, the IC50 in data set [2] (A-375, 48 h) was 5.26 µM; in data set [3] (48 h), 12.9 µM; in data set [4], 10.2 µM. Besides, the “inhibition of the mobility of Ea.Hy296 cells” value in data set [5] (5 µM) is “almost total inhibition”.

On to `COc1cc2ncnc(Oc3ccc(C=NNC(=S)Nc4ccc(F)c(F)c4)cc3)c2cc1OC` [TSC7, N-(3,4-difluorophenyl)-2-(4-((6,7-dimethoxyquinazolin-4-yl)oxy)benzylidene)hydrazine-1-carbothioamide], for which the IC50 in data set [2] (setting [7]) is over 100 µM; in data set [3] (48 h exposure, Alamar Blue) it was 53.8 µM; in data set [4], 43.2 µM. Further, the “Selectivity Index SIa” value in data set [4] came out at 1.25. The inhibition at 0.5 µM in data set [6] stood at 21.1%.

As for `COc1cc2ncnc(Oc3ccc(C=NNC(=S)Nc4ccccc4)cc3)c2cc1OC` [TSC5, N-phenyl-2-(4-((6,7-dimethoxyquinazolin-4-yl)oxy)benzylidene)hydrazine-1-carbothioamide], the “anti-angiogenic effect in CAM” value in data set [1] was “pronounced decrease in CAM vascularization”. In addition, the IC50 in data set [2] (setting [7]) was 17.4 µM; in data set [3] (48 h exposure, Alamar Blue), 16.4 µM; in data set [4], 7.47 µM; in data set [6], 0.378 µM. Further, the “Selectivity Index SIb” value in data set [2] amounted to 0.95. Further, the “cytotoxic potential relative to sorafenib” value in data set [4] (Ea.Hy296 cells, 48 h) amounted to 1.35 fold. The “Selectivity Index SIa” value in data set [4] came out at 2.20. Also, in data set [5] (1.25-5 µM, versus 0.2% DMSO), the motility inhibition potential is given as 11.19–12.82%. Besides, in data set [6], the inhibition at 0.5 µM was 71%.
